{
  "source": "patent US11214803B2",
  "about": "“Modulators of YAP1 expression” (Ionis Pharmaceuticals, Inc., priority 2019, dated 2022)",
  "key": {"[1]": {"tested_on": "Yap1 mRNA", "assay": "Antisense inhibition of human Yap1 in A-431 cells by cEt gapmers, single dose (Example 2, RTS4814)", "type": "cell-based", "settings": "3-10-3 cEt gapmers targeting SEQ ID NO.: 1, and 2", "method_in_brief": "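Single-dose knockdown screen of 3-10-3 cEt phosphorothioate gapmers at 2,000 nM added by free uptake to A-431 cells. After roughly 48 h, RNA was isolated and Yap1 transcript measured by RT-qPCR, with results given as % UTC.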"}, "[2]": {"tested_on": "Yap1 mRNA", "assay": "Dose-dependent inhibition of human Yap1 in A-431 cells (Example 8, 10,000 cells per well, RTS4814)", "type": "cell-based", "settings": "free uptake, approximately 48 hours, RTS4814; for Yap1 mRNA, % UTC: A-431 cells, 10,000 cells per well; for IC50: A-431 cells, linear regression on log/linear plot", "method_in_brief": "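A-431 cells (10,000/well) dosed with modified oligonucleotides by free uptake; Yap1 mRNA measured ~48 h later with primer-probe set RTS4814, normalized to total RNA (RIBOGREEN). Values are % of untreated control; IC50 from linear regression on log/linear plot.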"}, "[3]": {"settings": "Table 33, Yap1 mRNA, percent of untreated control"}, "[4]": {"settings": "Yap1 mRNA as percent of untreated control, A-431 cells, Table 30"}, "[5]": {"settings": "Table 32, Yap1 mRNA, percent of untreated control"}},
  "note": "Strand notation (5' to 3'): a small letter for the sugar, then the base; units joined by * are phosphorothioate-linked, units joined directly phosphodiester-linked; [ ] holds rarer units or linkages, { } end groups; capitals alone tell only the bases. k = constrained ethyl (cEt); [5mC] = 5-methylcytosine; d = 2'-deoxy (DNA)",
  "data": [
    {"substance": "1074419 (kA*kT*kT*d[5mC]*dT*dT*dT*dA*dG*dA*dG*d[5mC]*d[5mC]*kA*kA*k[5mC]; antisense) [compound 1074419]", "values": [
      {"measurement": "YAP1 (% UTC)", "setting": "[1]; [3]", "value": 4, "unit": "% UTC"},
      {"measurement": "Yap1 mRNA, % UTC", "setting": "[2]; 31.3 nM", "value": 48, "unit": "% UTC"},
      {"measurement": "Yap1 mRNA, % UTC", "setting": "[2]; 125.0 nM", "value": 15, "unit": "% UTC"},
      {"measurement": "Yap1 mRNA, % UTC", "setting": "[2]; 500.0 nM", "value": 5, "unit": "% UTC"},
      {"measurement": "Yap1 mRNA, % UTC", "setting": "[2]; 2000.00 nM", "value": 3, "unit": "% UTC"},
      {"measurement": "IC50", "setting": "[2]", "value": "< 20", "unit": "nM"}
    ]},
    {"substance": "1074448 (kT*kA*kA*dT*dG*dA*dT*dA*dG*d[5mC]*dA*d[5mC]*dT*kA*kG*kG; antisense) [compound 1074448]", "values": [
      {"measurement": "YAP1 (% UTC)", "setting": "[1]; [4]", "value": 3, "unit": "% UTC"},
      {"measurement": "Yap1 mRNA, % UTC", "setting": "[2]; 31.3 nM", "value": 54, "unit": "% UTC"},
      {"measurement": "Yap1 mRNA, % UTC", "setting": "[2]; 125.0 nM", "value": 13, "unit": "% UTC"},
      {"measurement": "Yap1 mRNA, % UTC", "setting": "[2]; 500.0 nM", "value": 4, "unit": "% UTC"},
      {"measurement": "Yap1 mRNA, % UTC", "setting": "[2]; 2000.00 nM", "value": 3, "unit": "% UTC"},
      {"measurement": "IC50", "setting": "[2]", "value": "< 20", "unit": "nM"}
    ]},
    {"substance": "1074450 (kA*k[5mC]*kT*dA*dA*dT*dG*dA*dT*dA*dG*d[5mC]*dA*k[5mC]*kT*kA; antisense) [compound 1074450]", "values": [
      {"measurement": "YAP1 (% UTC)", "setting": "[1]; [5]", "value": 5, "unit": "% UTC"},
      {"measurement": "Yap1 mRNA, % UTC", "setting": "[2]; 31.3 nM", "value": 54, "unit": "% UTC"},
      {"measurement": "Yap1 mRNA, % UTC", "setting": "[2]; 125.0 nM", "value": 22, "unit": "% UTC"},
      {"measurement": "Yap1 mRNA, % UTC", "setting": "[2]; 500.0 nM", "value": 7, "unit": "% UTC"},
      {"measurement": "Yap1 mRNA, % UTC", "setting": "[2]; 2000.00 nM", "value": 5, "unit": "% UTC"},
      {"measurement": "IC50", "setting": "[2]", "value": "< 20", "unit": "nM"}
    ]},
    {"substance": "1074451 (kG*kA*k[5mC]*dT*dA*dA*dT*dG*dA*dT*dA*dG*d[5mC]*kA*k[5mC]*kT; antisense) [compound 1074451]", "values": [
      {"measurement": "YAP1 (% UTC)", "setting": "[1]; [3]", "value": 6, "unit": "% UTC"},
      {"measurement": "Yap1 mRNA, % UTC", "setting": "[2]; 31.3 nM", "value": 63, "unit": "% UTC"},
      {"measurement": "Yap1 mRNA, % UTC", "setting": "[2]; 125.0 nM", "value": 26, "unit": "% UTC"},
      {"measurement": "Yap1 mRNA, % UTC", "setting": "[2]; 500.0 nM", "value": 8, "unit": "% UTC"},
      {"measurement": "Yap1 mRNA, % UTC", "setting": "[2]; 2000.00 nM", "value": 4, "unit": "% UTC"},
      {"measurement": "IC50", "setting": "[2]", "value": 40, "unit": "nM"}
    ]},
    {"substance": "1074480 (kT*k[5mC]*kA*dT*dT*dT*dG*d[5mC]*d[5mC]*dT*dA*dG*dG*kT*kT*k[5mC]; antisense) [compound 1074480]", "values": [
      {"measurement": "YAP1 (% UTC)", "setting": "[1]; [4]", "value": 3, "unit": "% UTC"},
      {"measurement": "Yap1 mRNA, % UTC", "setting": "[2]; 31.3 nM", "value": 33, "unit": "% UTC"},
      {"measurement": "Yap1 mRNA, % UTC", "setting": "[2]; 125.0 nM", "value": 9, "unit": "% UTC"},
      {"measurement": "Yap1 mRNA, % UTC", "setting": "[2]; 500.0 nM", "value": 5, "unit": "% UTC"},
      {"measurement": "Yap1 mRNA, % UTC", "setting": "[2]; 2000.00 nM", "value": 3, "unit": "% UTC"},
      {"measurement": "IC50", "setting": "[2]", "value": "< 20", "unit": "nM"}
    ]},
    {"substance": "1074576 (DNA kA*kT*kG*d[5mC]*dA*d[5mC]*dA*dT*dT*dA*dT*dG*dA*kA*k[5mC]*k[5mC]) [compound 1074576]", "values": [
      {"measurement": "YAP1 (% UTC)", "setting": "[1]; [4]", "value": 7, "unit": "% UTC"},
      {"measurement": "Yap1 mRNA, % UTC", "setting": "[2]; 31.3 nM", "value": 69, "unit": "% UTC"},
      {"measurement": "Yap1 mRNA, % UTC", "setting": "[2]; 125.0 nM", "value": 41, "unit": "% UTC"},
      {"measurement": "Yap1 mRNA, % UTC", "setting": "[2]; 500.0 nM", "value": 14, "unit": "% UTC"},
      {"measurement": "Yap1 mRNA, % UTC", "setting": "[2]; 2000.00 nM", "value": 9, "unit": "% UTC"},
      {"measurement": "IC50", "setting": "[2]", "value": 100, "unit": "nM"}
    ]},
    {"substance": "1074577 (DNA kT*kA*kT*dT*dT*d[5mC]*dT*dG*dT*d[5mC]*dA*dT*dG*k[5mC]*kA*k[5mC]) [compound 1074577]", "values": [
      {"measurement": "YAP1 (% UTC)", "setting": "[1]; Yap1 mRNA as percent of untreated control, A-431 cells, Table 31", "value": 3, "unit": "% UTC"},
      {"measurement": "Yap1 mRNA, % UTC", "setting": "[2]; 31.3 nM", "value": 33, "unit": "% UTC"},
      {"measurement": "Yap1 mRNA, % UTC", "setting": "[2]; 125.0 nM", "value": 10, "unit": "% UTC"},
      {"measurement": "Yap1 mRNA, % UTC", "setting": "[2]; 500.0 nM", "value": 4, "unit": "% UTC"},
      {"measurement": "Yap1 mRNA, % UTC", "setting": "[2]; 2000.00 nM", "value": 3, "unit": "% UTC"},
      {"measurement": "IC50", "setting": "[2]", "value": "< 20", "unit": "nM"}
    ]},
    {"substance": "1074578 (DNA kG*k[5mC]*kT*dT*dA*dT*dT*dT*d[5mC]*dT*dG*dT*d[5mC]*kA*kT*kG) [compound 1074578]", "values": [
      {"measurement": "YAP1 (% UTC)", "setting": "[1]; [5]", "value": 8, "unit": "% UTC"},
      {"measurement": "Yap1 mRNA, % UTC", "setting": "[2]; 31.3 nM", "value": 66, "unit": "% UTC"},
      {"measurement": "Yap1 mRNA, % UTC", "setting": "[2]; 125.0 nM", "value": 30, "unit": "% UTC"},
      {"measurement": "Yap1 mRNA, % UTC", "setting": "[2]; 500.0 nM", "value": 18, "unit": "% UTC"},
      {"measurement": "Yap1 mRNA, % UTC", "setting": "[2]; 2000.00 nM", "value": 11, "unit": "% UTC"},
      {"measurement": "IC50", "setting": "[2]", "value": 100, "unit": "nM"}
    ]},
    {"substance": "1074579 (DNA k[5mC]*k[5mC]*kA*d[5mC]*dT*dA*dT*dA*dA*dA*dG*d[5mC]*dT*kT*kA*kT) [compound 1074579]", "values": [
      {"measurement": "YAP1 (% UTC)", "setting": "[1]; [3]", "value": 6, "unit": "% UTC"},
      {"measurement": "Yap1 mRNA, % UTC", "setting": "[2]; 31.3 nM", "value": 54, "unit": "% UTC"},
      {"measurement": "Yap1 mRNA, % UTC", "setting": "[2]; 125.0 nM", "value": 22, "unit": "% UTC"},
      {"measurement": "Yap1 mRNA, % UTC", "setting": "[2]; 500.0 nM", "value": 8, "unit": "% UTC"},
      {"measurement": "Yap1 mRNA, % UTC", "setting": "[2]; 2000.00 nM", "value": 5, "unit": "% UTC"},
      {"measurement": "IC50", "setting": "[2]", "value": "< 20", "unit": "nM"}
    ]},
    {"substance": "1074608 (DNA kG*kT*kT*dA*d[5mC]*dA*dT*d[5mC]*dA*dT*d[5mC]*dT*d[5mC]*kT*kT*k[5mC]) [compound 1074608]", "values": [
      {"measurement": "YAP1 (% UTC)", "setting": "[1]; [4]", "value": 5, "unit": "% UTC"},
      {"measurement": "Yap1 mRNA, % UTC", "setting": "[2]; 31.3 nM", "value": 49, "unit": "% UTC"},
      {"measurement": "Yap1 mRNA, % UTC", "setting": "[2]; 125.0 nM", "value": 20, "unit": "% UTC"},
      {"measurement": "Yap1 mRNA, % UTC", "setting": "[2]; 500.0 nM", "value": 9, "unit": "% UTC"},
      {"measurement": "Yap1 mRNA, % UTC", "setting": "[2]; 2000.00 nM", "value": 7, "unit": "% UTC"},
      {"measurement": "IC50", "setting": "[2]", "value": "< 20", "unit": "nM"}
    ]}
  ]
}
